BindingDB's records for PubMed 9223568 (Yamanouchi Pharmaceutical, 1997)
Several values for one entry are separate records, joined by “and”; a condition that tells them apart may be missing. Equal values may be shown once. Numbered stars: 1 amine (or outer) side, 2 acyl side, 3 side chain; on linkers, the order of the positions; unused ones are H or OH. Bridge positions count the residues as written; N and C are the ends. Peptide text beside a SMILES is read from it. X1 = O=C(CC1(S[*:2])CCCCC1)[*:1]

Assays:
Vasopressin V1b receptor = target: T1, Vasopressin V1b receptor (Rattus norvegicus, UniProt P48974)
T1 sequence (P48974 whole entry): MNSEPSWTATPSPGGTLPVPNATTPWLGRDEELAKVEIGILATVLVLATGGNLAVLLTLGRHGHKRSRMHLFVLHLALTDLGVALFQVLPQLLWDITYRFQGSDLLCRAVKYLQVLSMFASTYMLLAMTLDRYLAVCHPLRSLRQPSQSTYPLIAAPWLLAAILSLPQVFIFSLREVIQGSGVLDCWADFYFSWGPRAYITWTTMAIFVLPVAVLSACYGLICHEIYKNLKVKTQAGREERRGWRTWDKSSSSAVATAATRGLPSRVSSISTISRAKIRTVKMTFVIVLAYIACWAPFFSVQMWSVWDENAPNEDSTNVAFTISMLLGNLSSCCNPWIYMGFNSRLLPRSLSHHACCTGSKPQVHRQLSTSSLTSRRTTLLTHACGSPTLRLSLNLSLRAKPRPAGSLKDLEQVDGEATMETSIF

Vasopressin V1a receptor = Vasopressin V1a receptor (Rattus norvegicus, UniProt P30560)
Oxytocin receptor = target: T2, Oxytocin receptor (Rattus norvegicus, UniProt P70536)
T2 sequence (P70536 whole entry): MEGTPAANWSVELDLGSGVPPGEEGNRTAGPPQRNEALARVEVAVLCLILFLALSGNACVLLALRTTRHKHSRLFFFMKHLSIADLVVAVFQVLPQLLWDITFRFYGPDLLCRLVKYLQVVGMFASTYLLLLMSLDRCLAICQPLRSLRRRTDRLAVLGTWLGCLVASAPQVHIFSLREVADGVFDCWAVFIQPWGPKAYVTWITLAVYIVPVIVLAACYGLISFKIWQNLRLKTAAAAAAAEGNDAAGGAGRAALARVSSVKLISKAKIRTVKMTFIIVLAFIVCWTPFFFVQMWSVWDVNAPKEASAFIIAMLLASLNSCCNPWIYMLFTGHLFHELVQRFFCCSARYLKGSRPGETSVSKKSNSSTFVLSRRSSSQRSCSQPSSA

Vasopressin V2 receptor = Vasopressin V2 receptor (Rattus norvegicus, UniProt Q00788)
Vasopressin V2 receptor, sequence (Q00788 whole entry): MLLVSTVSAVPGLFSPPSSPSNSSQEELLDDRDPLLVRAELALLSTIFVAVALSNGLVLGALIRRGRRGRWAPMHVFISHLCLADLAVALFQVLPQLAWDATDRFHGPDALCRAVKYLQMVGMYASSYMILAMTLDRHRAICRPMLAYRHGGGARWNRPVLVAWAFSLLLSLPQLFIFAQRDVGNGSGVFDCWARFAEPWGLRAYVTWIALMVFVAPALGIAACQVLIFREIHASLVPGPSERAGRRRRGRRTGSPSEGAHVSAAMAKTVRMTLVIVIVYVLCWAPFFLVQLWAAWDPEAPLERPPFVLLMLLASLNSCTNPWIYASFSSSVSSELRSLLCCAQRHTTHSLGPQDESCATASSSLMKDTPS

Vasopressin V1a receptor, sequence (P30560 whole entry): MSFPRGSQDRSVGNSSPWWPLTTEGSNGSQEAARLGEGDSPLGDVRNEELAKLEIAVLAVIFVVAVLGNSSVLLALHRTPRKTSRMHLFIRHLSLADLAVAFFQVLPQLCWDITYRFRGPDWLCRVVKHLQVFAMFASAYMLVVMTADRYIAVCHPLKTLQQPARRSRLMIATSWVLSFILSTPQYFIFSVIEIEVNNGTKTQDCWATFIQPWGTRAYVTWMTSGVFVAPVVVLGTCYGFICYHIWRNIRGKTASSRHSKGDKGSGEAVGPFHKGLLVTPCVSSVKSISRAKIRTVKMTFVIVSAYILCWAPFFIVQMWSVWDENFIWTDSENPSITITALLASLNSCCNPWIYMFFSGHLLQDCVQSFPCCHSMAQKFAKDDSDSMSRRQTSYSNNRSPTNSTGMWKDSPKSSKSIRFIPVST

Compound	Ki (Vasopressin V1b receptor)	Ki (Vasopressin V1a receptor)	Ki (Oxytocin receptor)	Ki (Vasopressin V2 receptor)
Cc1ccccc1C(=O)Nc1ccc(C(=O)N2CCCC(N(C)C)c3ccccc32)cc1 (stereo not given)	> 10 µM	0.232 µM	1.55 µM	–
Cc1nc2c([nH]1)-c1ccccc1N(C(=O)c1ccc(NC(=O)c3ccccc3-c3ccccc3)cc1)CC2 [CONIVAPTAN]	> 10 µM	0.00048 µM and 0.00024 µM	0.0444 µM	0.00304 µM and 0.00038 µM
CC(=O)NCCCOc1ccc(C(=O)N2CCC(N3C(=O)CCc4ccccc43)CC2)cc1 [N-(3-(4-(4-(2-oxo-3,4-dihydroquinolin-1(2H)-yl)piperidine-1-carbonyl)phenoxy)propyl)acetamide]	> 10 µM	0.0235 µM and 0.0149 µM	0.333 µM	> 10 µM
NC(=O)CC[C@@H]1NC(=O)[C@H](Cc2ccccc2)NC(=O)[C@H](Cc2ccc(O)cc2)NC(=O)CCSSC[C@@H](C(=O)N2CCC[C@H]2C(=O)N[C@H](CCCN=C(N)N)C(=O)NCC(N)=O)NC(=O)[C@H](CC(N)=O)NC1=O [NSC_64759]	–	–	–	0.00193 µM and 0.00794 µM
COc1ccc(C[C@@H]2NC(=O)CC3(CCCCC3)SSC[C@@H](C(=O)N3CCC[C@H]3C(=O)N[C@@H](CCCN=C(N)N)C(=O)NCC(N)=O)NC(=O)[C@H](CC(N)=O)NC(=O)[C@H](CCC(N)=O)NC(=O)[C@H](Cc3ccccc3)NC2=O)cc1 [NSC_105077] (Y(Me)FQNCPRG-NH2; linker N-5 via X1)	0.0376 µM	0.00179 µM and 0.00033 µM	–	0.0396 µM and 0.1 µM
